Test systems include RPMI-8226 leukemia; OVCAR-5 ovarian; SW-620 colon; SF-539 CNS; OVCAR-8 ovarian; DU-145 prostate; NCI-H23 lung; KM12 colon.
What all share (assay): inhibition of tumour cell growth, NCI panel, 48 h

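48-hour exposure; five concentrations; linearly interpolated endpoints. GI50 is the concentration that inhibits growth by half. At the TGI there is no net growth.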 Some results are limits rather than exact numbers.

For the molecule `COC(=O)C(Cc1cnc[nH]1)NC(=O)CNC(=O)CCCn1c(=O)c2c3ccccc3n(C)c2n2nnc(-c3ccccc3)c12` (centres undefined), the GI50 in the test on RPMI-8226 leukemia, in the test on OVCAR-5 ovarian, in the test on SW-620 colon, with SF-539 CNS, in the test with OVCAR-8 ovarian and in the test on DU-145 prostate was above 100 µM in each case. The GI50 in the test on NCI-H23 lung and in the test with KM12 colon was above 100 µM each time. Further, the TGI in the test on RPMI-8226 leukemia, in the test with OVCAR-5 ovarian, in the test on SW-620 colon, with SF-539 CNS, in the test on OVCAR-8 ovarian and in the test on DU-145 prostate was above 100 µM throughout. The TGI in the test on NCI-H23 lung and in the test on KM12 colon was above 100 µM in each case.

Take `CC1=CC(=O)CC(C)(C)C1(O)/C=C/C(C)=C/C(=O)O` (centres undefined): the TGI with RPMI-8226 leukemia, in the test on OVCAR-5 ovarian, with SW-620 colon, in the test on SF-539 CNS, in the test on OVCAR-8 ovarian and in the test on DU-145 prostate was above 100 µM each time. The TGI in the test with NCI-H23 lung and with KM12 colon was above 100 µM in each case.

For the molecule `Nc1ccccc1SC(CC(=O)c1ccccc1)c1ccc([N+](=O)[O-])cc1` (centres undefined), the GI50 with RPMI-8226 leukemia was 2.91 µM; in the test with OVCAR-5 ovarian it was 16.6 µM; with SW-620 colon, 2.88 µM; with SF-539 CNS, 17.2 µM; in the test on OVCAR-8 ovarian, 14.1 µM; in the test on DU-145 prostate, 13.9 µM. Moreover, the GI50 in the test with NCI-H23 lung was 13.5 µM; in the test on KM12 colon, 3.86 µM. Further, the TGI was 9.06 µM with RPMI-8226 leukemia; 30.6 µM with OVCAR-5 ovarian; 10.9 µM with SW-620 colon; 31.1 µM in the test on SF-539 CNS; 27.4 µM in the test with OVCAR-8 ovarian; 27.2 µM with DU-145 prostate. The TGI in the test on NCI-H23 lung turned out to be 27.2 µM; in the test on KM12 colon, 14.9 µM.

For `CNC1C(O)C(OC2C(N)CC(N)C(OC3OC(CN)=CCC3N)C2O)OCC1(C)O` (centres undefined), the TGI in the test on RPMI-8226 leukemia, in the test on OVCAR-5 ovarian, with SW-620 colon, with SF-539 CNS, in the test with OVCAR-8 ovarian and in the test with DU-145 prostate was above 100 µM throughout. The TGI in the test on NCI-H23 lung and in the test on KM12 colon was above 100 µM throughout.

As for `C/C1=C/C(=O)O[C@@H]2C[C@@H](CC[C@H](C)/C=C\C=C\CC1)O[C@@](O)([C@@H]1CSC(=O)N1CO)C2`, the GI50 is 0.161 µM in the test with RPMI-8226 leukemia; 0.0367 µM in the test on OVCAR-5 ovarian; 12.6 µM in the test on SW-620 colon; 0.0274 µM in the test on SF-539 CNS; 1.6 µM in the test on OVCAR-8 ovarian; 0.239 µM in the test on DU-145 prostate. The GI50 was 0.151 µM in the test with NCI-H23 lung and 4.96 µM in the test on KM12 colon. Also, the TGI in the test on RPMI-8226 leukemia is 23.1 µM; with OVCAR-5 ovarian, above 33.9 µM; with SW-620 colon, 30 µM; with SF-539 CNS, 12.4 µM; with OVCAR-8 ovarian, 74.6 µM; in the test on DU-145 prostate it was above 57.3 µM. Moreover, the TGI stood at 30.4 µM in the test with NCI-H23 lung and 24.3 µM with KM12 colon.

Take `NC(=O)C1c2ccccc2C=Cc2ccccc21`: the GI50 in the test on RPMI-8226 leukemia, in the test on OVCAR-5 ovarian, in the test on SW-620 colon, with SF-539 CNS, in the test with OVCAR-8 ovarian and with DU-145 prostate was above 100 µM in each case. Moreover, the GI50 in the test with NCI-H23 lung and in the test with KM12 colon was above 100 µM throughout. For the same molecule, the TGI in the test on RPMI-8226 leukemia, with OVCAR-5 ovarian, with SW-620 colon, with SF-539 CNS, with OVCAR-8 ovarian and in the test on DU-145 prostate was above 100 µM throughout. Besides, the TGI in the test on NCI-H23 lung and with KM12 colon was above 100 µM in each case.

As to `CCCCCCCCCCCCNC(=O)[C@H]1CSC(c2cc3ccccc3s2)N1` (some centres undefined), the GI50 was 6 µM with RPMI-8226 leukemia; 4.16 µM with OVCAR-5 ovarian; 2.3 µM in the test with SW-620 colon; 1.36 µM in the test with SF-539 CNS; 2.23 µM with OVCAR-8 ovarian; 1.21 µM with DU-145 prostate. The values for the GI50 with NCI-H23 lung and with KM12 colon were 1.92 µM and 1.1 µM, respectively. Also, the TGI turned out to be 15.3 µM in the test with RPMI-8226 leukemia; 8.53 µM in the test on OVCAR-5 ovarian; 7.93 µM with SW-620 colon; 4.79 µM in the test on SF-539 CNS; 8.53 µM with OVCAR-8 ovarian; 4.19 µM with DU-145 prostate. The TGI with NCI-H23 lung worked out at 7.19 µM; in the test on KM12 colon it was 3.55 µM.

On to `CCN(CC)c1ccc(C2CC(c3cc(OC)c(OC)c(OC)c3)=NN2)cc1` (centres undefined), for which the GI50 was 0.632 µM in the test with RPMI-8226 leukemia; 5.12 µM with OVCAR-5 ovarian; 0.47 µM in the test on SW-620 colon; 0.29 µM in the test on SF-539 CNS; 0.43 µM with OVCAR-8 ovarian; 0.305 µM in the test with DU-145 prostate. In addition, the GI50 in the test on NCI-H23 lung is 2.69 µM; with KM12 colon it was 0.372 µM. Further, the TGI is 7.91 µM in the test on RPMI-8226 leukemia; above 100 µM with OVCAR-5 ovarian; above 100 µM with SW-620 colon; 2.18 µM in the test with SF-539 CNS; above 27.5 µM in the test on OVCAR-8 ovarian; 1.49 µM in the test with DU-145 prostate. Also, the TGI with NCI-H23 lung and in the test with KM12 colon was above 100 µM in each case.

`CN[C@@H](C)C(=O)N[C@H]1CN(C(=O)CC(C)C)CC[C@H]2CC[C@@H](C(=O)NC(c3ccccc3)c3ccccc3)N2C1=O`: the GI50 with RPMI-8226 leukemia is above 74.9 µM; in the test with OVCAR-5 ovarian, above 100 µM; with SW-620 colon, above 100 µM; in the test on SF-539 CNS, 1.78 µM; with OVCAR-8 ovarian, 61.6 µM; in the test on DU-145 prostate, above 100 µM. For the same molecule, the GI50 in the test with NCI-H23 lung is 27.6 µM; with KM12 colon, above 100 µM. For the same molecule, the TGI with RPMI-8226 leukemia, in the test on OVCAR-5 ovarian, with SW-620 colon, in the test on SF-539 CNS, with OVCAR-8 ovarian and in the test with DU-145 prostate was above 100 µM throughout. In addition, the TGI with NCI-H23 lung and in the test with KM12 colon was above 100 µM each time.

As for `Cc1cccc(-c2nn3c(c2-c2ccnc4ccc(C(N)=O)cc24)CCC3)n1`, the GI50 with RPMI-8226 leukemia, in the test with OVCAR-5 ovarian, with SW-620 colon, with SF-539 CNS, with OVCAR-8 ovarian and with DU-145 prostate was above 100 µM in each case. For the same molecule, the GI50 with NCI-H23 lung and with KM12 colon was above 100 µM each time. For the same molecule, the TGI in the test with RPMI-8226 leukemia, in the test on OVCAR-5 ovarian, in the test with SW-620 colon, with SF-539 CNS, with OVCAR-8 ovarian and in the test on DU-145 prostate was above 100 µM each time. In addition, the TGI in the test on NCI-H23 lung and in the test on KM12 colon was above 100 µM in each case.

The values above are taken from PubChem BioAssay (NCI).
